From paper PMC8123576 (International Journal of Molecular Sciences, 2021)
Read-outs that look alike come from different tables or passages of the source.

Assays:
A. flavus = assay: microbe, parasite or virus in culture; assay type: cell-based, Aspergillus flavus; details: 10 to 100 µM; complexes compared with their ligand
U937 cells [1] = assay: Alkaline Comet Assay; assay type: cell-based, human; details: 24 h treatment, 25-100 µM
Experimental: Our standard protocol for the Alkaline Comet Assay (pH > 13) was previously described in great detail. The DNA-damaging effects of non-cytotoxic molecules were evaluated on U937 cells using 25 μM as the lowest concentration and 100 µM as the highest for 24 h treatment. After exposure, cell viability was checked using the trypan blue exclusion method: a viability of at least 70% compared to the negative control (DMSO) was used as a cut-off for further evaluating the level of DNA damage. After electrophoresis (DNA unwinding: 20 min; electrophoresis: 20 min, 0.78 V cm^−1, 300 mA), nucleoids stained with ethidium bromide (75 µL, 10 µg/mL) were examined with a Leica DMLS fluorescence microscope (excitation filter BP 515–560 nm, barrier filter LP 580 nm), using the software Comet Assay IV (Perceptive Instruments Ltd., Suffolk, UK). Alkaline Comet assay results are expressed as tail intensity percentage that measures the percentage of total cellular DNA found in the tail of each comet.

[2] = Cytotoxicity assay (CellTiter 96 AQueous One) on Hs27; assay type: cell-based, human; details: human, Hs27 normal skin cells, Hs27, 24 h, dose 0 = 100.00, read-out: Growth inhibition data
Experimental: (§1) The best antifungal and/or antiaflatoxigenic compounds were tested to determine their cytotoxic activity against human normal cell lines deriving from lung (HFL1, ATCC and CCL-153), skin (Hs27, ATCC, CRL1634) and colon (Crl1790, ATCC, CCD 841 CoN) and a cell line deriving from a hematological tumor (U937, ATCC and CRL-3253). These different cell lines have been chosen to simulate the different human exposition routes to pesticide. Cell culture conditions have been previously reported. Compound cytotoxicity was determined using CellTiter 96® AQueous One Solution Cell Proliferation Assay (Promega Corporation, Madison, WI, USA). The very detailed protocol was described by Bartoli et al.. In brief, cells were seeded in a 96-well plate at a density of 5000 cells/well and after 24 h cells were treated with different concentrations of the compounds (0.5–1–5–10–50–100 µM). After the treatment period (24 h), the CellTiter Reagent was added to each well (20 µL/well) and the plate incubated for 4 h at 37 °C. The plate was then read at 485 nm in a multiwell plate reader (TECAN SpectraFluor Plus, Männedorf, Switzerland).

Hs27 cells = assay: as above; assay type: cell-based, human; details: Hs27 cells, 24 h treatment
Experimental: as §1

S. typhimurium TA98 = details: for TA98 + S9 revertants/plate: NC 26.5 ± 5.4; for TA98 revertants/plate: NC 15.7 ± 4.9
[3] = tested on: aflatoxin accumulation by A. flavus; assay: microbe, parasite or virus in culture; assay type: cell-based, Aspergillus flavus; details: Aspergillus flavus
S. typhimurium TA100 = details: for TA100 + S9 revertants/plate: NC 106.5 ± 11.9; for TA100 revertants/plate: NC 95.8 ± 5.5
[4] = Cytotoxicity assay (CellTiter 96 AQueous One) on U937; assay type: cell-based, human; details: human, U937 cells (hematological tumor line), U937, 24 h, dose 0 = 100.00, read-out: Growth inhibition data
Experimental: as §1

U937 cells [5] = assay: as above; assay type: cell-based, human; details: U937 cells, 24 h treatment
Experimental: as §1

A. cepa = A. cepa toxicity test (root length); assay type: in vivo, Allium cepa; details: for Roots Length: NC 2.07 ± 0.61
Experimental: A. cepa toxicity test: Twelve equal-sized young onion bulbs were exposed for 96 h in the dark to different concentrations of compounds dissolved in DMSO, changing the sample solution every day. […] Root macroscopic parameters such as turgescence, consistency, change in color and root tip shape, were used as toxicity indexes.

[6] = Cytotoxicity assay (CellTiter 96 AQueous One) on HFL1; assay type: cell-based, human; details: human, HFL1 normal lung cells, HFL1, 24 h, dose 0 = 100.00, read-out: Growth inhibition data
Experimental: as §1

HFL1 cells = assay: as above; assay type: cell-based, human; details: HFL1 cells, 24 h treatment
Experimental: as §1

[7] = read-out: A.I. (%) (aflatoxin accumulation inhibition)

## CC(=NNC(N)=S)c1cccs1 [2-actpTS, 2-acetylthiophenethiosemicarbazone]
A. flavus
  impact on fungal growth: modest inhibitory activity
U937 cells [1]
  DNA damage in Alkaline Comet Assay: did not induce significant DNA damage
[2]; 0.5 µM
  viability at 24 h, 0.5 µM: 99.9 ± 7.65%
[2]; 1 µM
  viability at 24 h, 1 µM: 97 ± 4.78%
[2]; 5 µM
  viability at 24 h, 5 µM: 100 ± 5.97%
[2]; 10 µM
  viability at 24 h, 10 µM: 97.7 ± 3.73%
[2]; 50 µM
  viability at 24 h, 50 µM: 100 ± 9.25%
[2]; 100 µM
  viability at 24 h, 100 µM: 87.3 ± 8.07%
Hs27 cells
  cytotoxic effect: did not show cytotoxic effect
S. typhimurium TA98; +S9, 0.1 µM/plate
  TA98 + S9 MR (mutagenicity ratio): 0.9
  TA98 + S9 revertants/plate: 25.0 ± 0.0 revertants/plate
S. typhimurium TA98; +S9, 1.0 µM/plate
  TA98 + S9 MR (mutagenicity ratio): 1.4
  TA98 + S9 revertants/plate: 37.0 ± 4.2 revertants/plate
S. typhimurium TA98; +S9, 10.0 µM/plate
  TA98 + S9 MR (mutagenicity ratio): 1.3
  TA98 + S9 revertants/plate: 34.0 ± 2.8 revertants/plate
S. typhimurium TA98; +S9, 50.0 µM/plate
  TA98 + S9 MR (mutagenicity ratio): 1.2
  TA98 + S9 revertants/plate: 31.5 ± 6.4 revertants/plate
S. typhimurium TA98; +S9, 100.0 µM/plate
  TA98 + S9 MR (mutagenicity ratio): 1.2
  TA98 + S9 revertants/plate: 32.0 ± 2.8 revertants/plate
S. typhimurium TA98; -S9, 0.1 µM/plate
  TA98 MR (mutagenicity ratio): 1.9
  TA98 revertants/plate: 29.5 ± 3.5 revertants/plate
S. typhimurium TA98; -S9, 1.0 µM/plate
  TA98 MR (mutagenicity ratio): 1.5
  TA98 revertants/plate: 23.5 ± 6.4 revertants/plate
S. typhimurium TA98; -S9, 10.0 µM/plate
  TA98 MR (mutagenicity ratio): 1.0
  TA98 revertants/plate: 16.0 ± 1.4 revertants/plate
S. typhimurium TA98; -S9, 50.0 µM/plate
  TA98 MR (mutagenicity ratio): 1.4
  TA98 revertants/plate: 22.5 ± 3.5 revertants/plate
S. typhimurium TA98; -S9, 100.0 µM/plate
  TA98 MR (mutagenicity ratio): 1.3
  TA98 revertants/plate: 21.0 ± 0.0 revertants/plate
[3]; [7]
  inhibition at 50 µM: 58.3%
  inhibition at 100 µM: 88.4%
[3]; read-out: percentage of aflatoxin accumulation inhibition
  inhibition at 10 µM: 23%
S. typhimurium TA100; +S9, 0.1 µM/plate
  TA100 + S9 MR (mutagenicity ratio): 0.9
  TA100 + S9 revertants/plate: 98.0 ± 24.0 revertants/plate
S. typhimurium TA100; +S9, 1.0 µM/plate
  TA100 + S9 MR (mutagenicity ratio): 1.0
  TA100 + S9 revertants/plate: 104.0 ± 15.6 revertants/plate
S. typhimurium TA100; +S9, 10.0 µM/plate
  TA100 + S9 MR (mutagenicity ratio): 1.0
  TA100 + S9 revertants/plate: 107.5 ± 0.7 revertants/plate
S. typhimurium TA100; +S9, 50.0 µM/plate
  TA100 + S9 MR (mutagenicity ratio): 0.9
  TA100 + S9 revertants/plate: 90.5 ± 13.4 revertants/plate
S. typhimurium TA100; +S9, 100.0 µM/plate
  TA100 + S9 MR (mutagenicity ratio): 0.8
  TA100 + S9 revertants/plate: 88.0 ± 8.5 revertants/plate
S. typhimurium TA100; -S9, 0.1 µM/plate
  TA100 MR (mutagenicity ratio): 1.0
  TA100 revertants/plate: 92.0 ± 14.1 revertants/plate
S. typhimurium TA100; -S9, 1.0 µM/plate
  TA100 MR (mutagenicity ratio): 1.1
  TA100 revertants/plate: 101.5 ± 4.9 revertants/plate
S. typhimurium TA100; -S9, 10.0 µM/plate
  TA100 MR (mutagenicity ratio): 1.1
  TA100 revertants/plate: 104.5 ± 9.2 revertants/plate
S. typhimurium TA100; -S9, 50.0 µM/plate
  TA100 MR (mutagenicity ratio): 0.9
  TA100 revertants/plate: 87.5 ± 7.8 revertants/plate
S. typhimurium TA100; -S9, 100.0 µM/plate
  TA100 MR (mutagenicity ratio): 1.0
  TA100 revertants/plate: 99.5 ± 0.7 revertants/plate
[4]; 0.5 µM
  viability at 24 h, 0.5 µM: 100 ± 9.43%
[4]; 1 µM
  viability at 24 h, 1 µM: 100 ± 4.23%
[4]; 5 µM
  viability at 24 h, 5 µM: 100 ± 6.71%
[4]; 10 µM
  viability at 24 h, 10 µM: 100 ± 7.06%
[4]; 50 µM
  viability at 24 h, 50 µM: 100 ± 3.6%
[4]; 100 µM
  viability at 24 h, 100 µM: 94.7 ± 8.15%
U937 cells [5]
  50% inhibition of cell proliferation: did not induce 50% inhibition of cell proliferation
A. cepa; 10 µM
  Roots Length: 2.17 ± 0.53 cm
A. cepa; 25 µM
  Roots Length: 1.65 ± 0.43 cm
A. cepa; 50 µM
  Roots Length: 1.68 ± 0.39 cm
A. cepa; 100 µM
  Roots Length: 1.07 ± 0.23 cm
A. cepa; Allium cepa, read-out: EC50 (50% A. cepa root growth inhibition), 96 h exposure
  EC50: ~100 µM
[6]; 0.5 µM
  viability at 24 h, 0.5 µM: 100 ± 11.1%
[6]; 1 µM
  viability at 24 h, 1 µM: 100 ± 6.11%
[6]; 5 µM
  viability at 24 h, 5 µM: 100 ± 5.74%
[6]; 10 µM
  viability at 24 h, 10 µM: 100 ± 6.76%
[6]; 50 µM
  viability at 24 h, 50 µM: 100 ± 4.53%
[6]; 100 µM
  viability at 24 h, 100 µM: 92.5 ± 3.49%
HFL1 cells
  50% inhibition of cell proliferation: did not induce 50% inhibition of cell proliferation
